US20250296971A1, “GASTRIC INHIBITORY PEPTIDE RECEPTOR LIGANDS” (priority 2021, published 2025)
*1 amine or outer side, *2 acyl side, *3 side chain or, on linkers, in order; H or OH if unused. Where a SMILES comes first, the peptide text is derived from it. Bridges are numbered along the chain shown (N, C = ends). [ ]: non-standard residue; d: D form. The star is where a group is joined. X11 = O=C(CN1CCN2CCN3CCN(CC1)CC(=O)[O][In]([O]C(=O)C2)[O]C(=O)C3)NCCCOCCOCCOCCCN*; X3 = O=C(O)CN1CCN(CC(=O)O)CCN(CC(=O)NCCCOCCOCCOCCCN*)CCN(CC(=O)O)CC1; NH(1-deoxy-D-glucityl) = OC[C@@H](O)[C@@H](O)[C@H](O)[C@@H](O)CN*; X8 = O=C(O)CN1CCN(CC(=O)O)CCN(CC(=O)N2CCN(*)CC2)CCN(CC(=O)O)CC1; DOTA = O=C(O)CN1CCN(CC(=O)O)CCN(CC(=O)*)CCN(CC(=O)O)CC1; Pro(cis-4-NHAc) = CC(=O)N[C@@H]1CN[C@H](C(=O)O)C1; Trp(5-Cl) = N[C@@H](Cc1c[nH]c2ccc(Cl)cc12)C(=O)O; Pyridine(2,6-diCH2) = c1cc(C[*:1])nc(C[*:2])c1; Pro(4R-NH2) = N[C@H]1CN[C@H](C(=O)O)C1; Glutaryl = O=C(CCCC(=O)[*:2])[*:1]; X7 = c1cc(CSCCN[*:2])cc(C[*:1])c1; Hyp = O=C(O)[C@@H]1C[C@@H](O)CN1; X1 = O=C(CN1CCC(N[*:1])CC1)[*:2]; Suc = O=C(CCC(=O)[*:2])[*:1]; Api = NC1(C(=O)O)CCNCC1; Thp = NC1(C(=O)O)CCOCC1; Aib = CC(C)(N)C(=O)O

Experiments:
[1] = target: T1, GIPR (CHO-K1-hGIPR cells) (Homo sapiens, UniProt P48546); test: FACS binding assay; conditions: competition with 20 nM GIP-057, 4° C., 1 hour, read-out: pIC50 Category (converted)
T1 construct: host or cells: CHO-K1
T1 sequence (P48546 22-466): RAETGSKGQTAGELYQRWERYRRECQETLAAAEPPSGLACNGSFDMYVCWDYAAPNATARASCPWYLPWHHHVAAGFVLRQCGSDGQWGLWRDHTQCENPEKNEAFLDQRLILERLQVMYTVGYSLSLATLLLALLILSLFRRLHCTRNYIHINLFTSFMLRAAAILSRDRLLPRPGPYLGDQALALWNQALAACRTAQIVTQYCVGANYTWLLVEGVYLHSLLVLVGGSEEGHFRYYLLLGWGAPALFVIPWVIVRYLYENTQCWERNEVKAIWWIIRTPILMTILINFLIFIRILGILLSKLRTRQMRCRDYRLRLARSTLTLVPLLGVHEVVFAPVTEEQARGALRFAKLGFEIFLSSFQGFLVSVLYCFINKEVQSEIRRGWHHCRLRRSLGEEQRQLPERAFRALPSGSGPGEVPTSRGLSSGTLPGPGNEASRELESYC
How it was run: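 Read-out: flow cytometric median fluorescence intensity, APC/Cy5 channel, plotted vs peptide conc.; 4PL fit → EC50/pEC50 or IC50/pIC50. Cells: CHO-K1-hGIPR, Accutase-detached, 500.000/mL in PBS + 1% FCS. Detection: APC-streptavidin 1 μg/mL, 30 min, on ice.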

[2] = target: T2, human GIP receptor (bioGIPR) (Homo sapiens, UniProt P48546); test: Surface plasmon resonance (SPR) based binding assay; conditions: Single Cycle Kinetic mode, 25° C.; for t1/2 Category: SPR dissociation half-life; for Kd: SPR, 1:1 Langmuir binding model, read-out: pKD Category (converted)
T2 construct: Biotinylate extracellular of the human GIP receptor (bioGIPR, Proteros biostructures GmbH, lot #02/2b); purchased Proteros biostructures GmbH lot #02/2b
T2 sequence (P48546 22-138 limits assumed): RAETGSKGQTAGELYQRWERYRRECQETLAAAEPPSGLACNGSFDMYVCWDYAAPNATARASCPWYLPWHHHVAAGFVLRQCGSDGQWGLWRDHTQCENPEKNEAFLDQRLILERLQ
How it was run: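 Binding was measured at 25 °C by single-cycle kinetics against a reference flow cell, with blank-run and drift correction, after capturing biotinylated GIPR extracellular domain to ~3500 RU. Running buffer: HBST, 0.1% DMSO. A 1:1 Langmuir model gave kinetic rates, KD, t1/2 and pKD.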

SMILES | IC50 [1] [nM] | t1/2 Category [2] | Kd [2] [nM]
CC[C@H](C)[C@@H]1NC(=O)[C@H](CC(C)C)NC(=O)C2(CCN(C(=O)CN3CCN(CC(=O)O)CCN(CC(=O)O)CCN(CC(=O)O)CC3)CC2)NC(=O)[C@@H](NC(=O)[C@@H](CC(C)C)NC(=O)[C@H](CCC(=O)O)NC(=O)[C@@H]2C[C@@H](O)CN2C(=O)[C@H](Cc2c[nH]c3ccc(Cl)cc23)NC(=O)[C@H](Cc2c[nH]c3ccccc23)NC(=O)[C@H](CC(=O)O)NC(=O)CN2CCC(NC(=O)CCCC(=O)NC[C@H](O)[C@@H](O)[C@H](O)[C@H](O)CO)CC2)CSCc2cccc(n2)CSC[C@@H](C(=O)NC2CCN(CC(=O)N[C@H](CCC(=O)NC[C@H](O)[C@@H](O)[C@H](O)[C@H](O)CO)C(N)=O)CC2)NC1=O [GIP-011, AGLU-Glutar-APAc-Asp-Trp-5Clw-Hyp-Glu-leu-[Cys(2Lut)-Apc(DOTA)-Leu-Ile-Cys]-APAc-glu(AGLU)-NH2] ({NH(1-deoxy-D-glucityl)-Glutaryl}-[X1]DW[Trp(5-Cl)][Hyp]E[dL]C[Api](DOTA)LIC[X1][dE](NH(1-deoxy-D-glucityl))-NH2; linker 8-12 via Pyridine(2,6-diCH2)) | < 10 | A (t1/2 values>15 min) | < 1
CC[C@H](C)[C@@H]1NC(=O)[C@H](CC(C)C)NC(=O)C(C)(C)NC(=O)[C@@H](NC(=O)[C@@H](CC(C)C)NC(=O)[C@H](CCC(=O)O)NC(=O)[C@@H]2C[C@@H](O)CN2C(=O)[C@H](Cc2c[nH]c3ccc(Cl)cc23)NC(=O)[C@H](Cc2c[nH]c3ccccc23)NC(=O)[C@H](CC(=O)O)NC(=O)CCC(=O)NCCCOCCOCCOCCCNC(=O)CN2CCN3CCN4CCN(CC2)CC(=O)[O][In]([O]C(=O)C3)[O]C(=O)C4)CSCc2cccc(c2)CSCCNC1=O [GIP-151, InDOTA-Ttds-Asp-Trp-5Clw-Hyp-Glu-leu-[Cys(3MeBn)-Aib-Leu-Ile-AET]] ({X11-Suc}-DW[Trp(5-Cl)][Hyp]E[dL]C[Aib]LI; linker 7-C via X7) | < 10 | A (t1/2 values>15 min) | < 1
CC[C@H](C)[C@@H]1NC(=O)[C@H](CC(C)C)NC(=O)C2(CCOCC2)NC(=O)[C@@H](NC(=O)[C@@H](CC(C)C)NC(=O)[C@H](CCC(=O)O)NC(=O)[C@@H]2C[C@@H](O)CN2C(=O)[C@H](Cc2c[nH]c3ccc(Cl)cc23)NC(=O)[C@H](Cc2c[nH]c3ccccc23)NC(=O)CCC(=O)O)CSCc2cccc(n2)CSC[C@@H](C(=O)N2CCN(C(=O)CN3CCN(CC(=O)O)CCN(CC(=O)O)CCN(CC(=O)O)CC3)CC2)NC1=O [GIP-118, HO-Succinyl-Trp-5Clw-Hyp-Glu-leu-[Cys(2Lut)-Thp-Leu-Ile-Cys]-PP-DOTA] (Suc-W[Trp(5-Cl)][Hyp]E[dL]C[Thp]LIC-X8; linker 6-10 via Pyridine(2,6-diCH2)) | < 10 | A (t1/2 values>15 min) | < 1
CC[C@H](C)[C@@H]1NC(=O)[C@H](CC(C)C)NC(=O)C(C)(C)NC(=O)[C@@H](NC(=O)[C@@H](CC(C)C)NC(=O)[C@H](CCC(=O)O)NC(=O)[C@@H]2C[C@H](NC(C)=O)CN2C(=O)[C@H](Cc2c[nH]c3ccc(Cl)cc23)NC(=O)[C@H](Cc2c[nH]c3ccccc23)NC(=O)[C@H](CC(=O)O)NC(=O)CCC(=O)NCCCOCCOCCOCCCNC(=O)CN2CCN(CC(=O)O)CCN(CC(=O)O)CCN(CC(=O)O)CC2)CSCc2cccc(c2)CSCCNC1=O [GIP-111, DOTA-Ttds-Asp-Trp-5Clw-4Ap(Ac)-Glu-leu-[Cys(3MeBn)-Aib-Leu-Ile-AET]] ({X3-Suc}-DW[Trp(5-Cl)][Pro(cis-4-NHAc)]E[dL]C[Aib]LI; linker 7-C via X7) | < 10 | A (t1/2 values>15 min) | 1 to 7.94
CC[C@H](C)[C@@H]1NC(=O)[C@H](CC(C)C)NC(=O)C2(CCNCC2)NC(=O)[C@@H](NC(=O)[C@@H](CC(C)C)NC(=O)[C@H](CCC(=O)O)NC(=O)[C@@H]2C[C@@H](N)CN2C(=O)[C@H](Cc2c[nH]c3ccc(Cl)cc23)NC(=O)[C@H](Cc2c[nH]c3ccccc23)NC(=O)[C@H](CC(=O)O)NC(=O)CCC(=O)NCCCOCCOCCOCCCNC(=O)CN2CCN(CC(=O)O)CCN(CC(=O)O)CCN(CC(=O)O)CC2)CSCc2cccc(c2)CSCCNC1=O [GIP-112, DOTA-Ttds-Asp-Trp-5Clw-Tap-Glu-leu-[Cys(2Lut)-Apc-Leu-Ile-AET]] ({X3-Suc}-DW[Trp(5-Cl)][Pro(4R-NH2)]E[dL]C[Api]LI; linker 7-C via X7) | < 10 | A (t1/2 values>15 min) | < 1
